Data taken from PubChem BioAssay AID330 (DTP/NCI, 2004).
Values joined by “and” are separate entries in the source; they are usually repeats but may differ in a detail not shown here. Equal values may be shown once. Inconclusive results and toxic doses are left out.

Tested on: P388 leukemia ip, CD2F1 mice, survival T/C
Experiment: NCI In Vivo Anticancer Drug Screen. Data for tumor model P388 Leukemia (intraperitoneal) in CD2F1 (CDF1) mice
Details: endpoint: median survival time, higher = longer survival
Procedure, shortened: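 Mice carrying the transplanted tumor received test compound or vehicle. Survival was recorded in each group, and the value is the treated-group measurement divided by that of the vehicle-treated control group.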

[1] = dose: 50.0 mg/kg/injection, schedule: Q01DX005 (ip), vehicle: saline with Tween-80
[2] = dose: 100.0 mg/kg/injection, schedule: Q01DX005 (ip), vehicle: saline with Tween-80
[3] = dose: 200.0 mg/kg/injection, schedule: Q01DX005 (ip), vehicle: saline with Tween-80
[4] = dose: 200.0 mg/kg/injection, schedule: Q01DX009 (ip), vehicle: saline with Tween-80
[5] = dose: 50.0 mg/kg/injection, schedule: Q01DX009 (ip), vehicle: suspension in saline
[6] = dose: 100.0 mg/kg/injection, schedule: Q01DX009 (ip), vehicle: suspension in saline
[7] = dose: 200.0 mg/kg/injection, schedule: Q01DX009 (ip), vehicle: suspension in saline
[8] = dose: 60.0 mg/kg/injection, schedule: Q01DX005 (ip), vehicle: saline with Tween-80
[9] = dose: 120.0 mg/kg/injection, schedule: Q01DX005 (ip), vehicle: saline with Tween-80
[10] = dose: 240.0 mg/kg/injection, schedule: Q01DX005 (ip), vehicle: saline with Tween-80
[11] = dose: 100.0 mg/kg/injection, schedule: Q04DX003 (ip), vehicle: Klucel (hydroxypropylcellulose) (HPC)
[12] = dose: 50.0 mg/kg/injection, schedule: Q01DX005 (ip), vehicle: Klucel (hydroxypropylcellulose) (HPC)
[13] = dose: 100.0 mg/kg/injection, schedule: Q01DX005 (ip), vehicle: Klucel (hydroxypropylcellulose) (HPC)
[14] = dose: 12.5 mg/kg/injection, schedule: Q01DX009 (ip), vehicle: saline with Tween-80
[15] = dose: 25.0 mg/kg/injection, schedule: Q01DX009 (ip), vehicle: saline with Tween-80
[16] = dose: 50.0 mg/kg/injection, schedule: Q01DX009 (ip), vehicle: saline with Tween-80

Compound: C=CCSCC1Nc2cc(Cl)c(S(N)(=O)=O)cc2S(=O)(=O)N1C (stereo not drawn)
- T/C [1]: 100 % of control
- T/C [2]: 105 % of control
- T/C [3]: 101 % of control

Compound: CCN(CCO)CCNc1ccc(CO)c2sc3cc(Cl)ccc3c(=O)c12
- T/C (dose: 88.0 mg/kg/injection, schedule: Q01DX009 (ip), vehicle: saline with Tween-80): 105 % of control
- T/C (dose: 133.0 mg/kg/injection, schedule: Q01DX009 (ip), vehicle: saline with Tween-80): 113 % of control
- T/C [4]: 112 % of control
- T/C (dose: 300.0 mg/kg/injection, schedule: Q01DX009 (ip), vehicle: saline with Tween-80): 102 % of control

Compound: CCOC(=O)N[C@H]1CCc2cc(O)c(OC)c(OC)c2-c2ccc(SC)c(=O)cc21
- T/C (dose: 1.25 mg/kg/injection, schedule: Q01DX009 (ip), vehicle: Klucel (hydroxypropylcellulose) (HPC)): 120 % of control
- T/C (dose: 10.0 mg/kg/injection, schedule: Q01DX009 (ip), vehicle: Klucel (hydroxypropylcellulose) (HPC)): 109 % of control

Compound: Cc1nc(N)cc(=O)[nH]1
- T/C [5]: 89 % of control
- T/C [6]: 93 % of control
- T/C [7]: 91 % of control
- T/C (dose: 400.0 mg/kg/injection, schedule: Q01DX009 (ip), vehicle: suspension in saline): 101 % of control

Compound: Nc1nnc2nc(CC(=O)c3ccccc3)c(=O)[nH]n12
- T/C (dose: 60.0 mg/kg/injection, schedule: Q01DX005 (ip), vehicle: saline): 96 % of control
- T/C (dose: 120.0 mg/kg/injection, schedule: Q01DX005 (ip), vehicle: saline): 100 % of control
- T/C (dose: 240.0 mg/kg/injection, schedule: Q01DX005 (ip), vehicle: saline): 100 % of control

Compound: C#CCOC(=O)Nc1nc2ccc(C)cc2s1
- T/C (dose: 6.25 mg/kg/injection, schedule: Q01DX009 (ip), vehicle: Klucel (hydroxypropylcellulose) (HPC)): 107 % of control
- T/C (dose: 12.5 mg/kg/injection, schedule: Q01DX009 (ip), vehicle: Klucel (hydroxypropylcellulose) (HPC)): 104 % of control
- T/C (dose: 25.0 mg/kg/injection, schedule: Q01DX009 (ip), vehicle: Klucel (hydroxypropylcellulose) (HPC)): 101 % of control

Compound: CN=C(C#N)c1ccccc1
- T/C [1]: 100 % of control
- T/C [2]: 98 % of control
- T/C [3]: 99 % of control

Compound: CCOC(=O)C1Cc2c(OC)cc(OC)cc2OC1=O (stereo not drawn)
- T/C [8]: 97 % of control
- T/C [9]: 94 % of control
- T/C [10]: 92 % of control

Compound: c1ccc(C(c2ccccc2)c2cc(-c3cc(C(c4ccccc4)c4ccccc4)[nH]n3)n[nH]2)cc1
- T/C (dose: 60.0 mg/kg/injection, schedule: Q01DX005 (ip), vehicle: distilled water + Tween-80): 97 % of control
- T/C (dose: 120.0 mg/kg/injection, schedule: Q01DX005 (ip), vehicle: distilled water + Tween-80): 102 % of control
- T/C (dose: 240.0 mg/kg/injection, schedule: Q01DX005 (ip), vehicle: distilled water + Tween-80): 102 % of control

Compound: O=C1OCCC(O)=C1C=NCc1ccccc1
- T/C (dose: 25.0 mg/kg/injection, schedule: Q04DX003 (ip), vehicle: Klucel (hydroxypropylcellulose) (HPC)): 105 % of control
- T/C (dose: 50.0 mg/kg/injection, schedule: Q04DX003 (ip), vehicle: Klucel (hydroxypropylcellulose) (HPC)): 104 % of control
- T/C [11]: 99 % of control and 88 % of control

Compound: C=CCc1cn(C2CC(OC(=O)c3ccc(Cl)cc3)C(COC(=O)c3ccc(Cl)cc3)O2)c(=O)[nH]c1=O (stereo not drawn)
- T/C [12]: 98 % of control
- T/C [13]: 98 % of control
- T/C (dose: 200.0 mg/kg/injection, schedule: Q01DX005 (ip), vehicle: Klucel (hydroxypropylcellulose) (HPC)): 91 % of control

Compound: CNCCNc1ccc(NCCNC)c2c1C(=O)c1ccccc1C2=O
- T/C (dose: 2.0 mg/kg/injection, schedule: Q01DX009 (ip), vehicle: acid diluted with saline): 183 % of control
- T/C (dose: 4.0 mg/kg/injection, schedule: Q01DX009 (ip), vehicle: acid diluted with saline): 175 % of control
- T/C (dose: 8.0 mg/kg/injection, schedule: Q01DX009 (ip), vehicle: acid diluted with saline): 175 % of control
- T/C (dose: 12.5 mg/kg/injection, schedule: Q01DX009 (ip), vehicle: distilled water + Tween-80): 200 % of control
- T/C (dose: 16.0 mg/kg/injection, schedule: Q01DX009 (ip), vehicle: acid diluted with saline): 86 % of control

Compound: CCOc1ccc(C(c2ccc(OCC)cc2)C(C)C)cc1
- T/C [5]: 108 % of control
- T/C [6]: 100 % of control
- T/C [7]: 105 % of control

Compound: CCCC(O)(CCC)/C(C)=N/O
- T/C [14]: 99 % of control
- T/C [15]: 107 % of control
- T/C [16]: 87 % of control and 98 % of control
- T/C [4]: 88 % of control

Compound: O=C1CS(=O)(=O)CN1c1ccc(Cl)c(Cl)c1
- T/C (dose: 50.0 mg/kg/injection, schedule: Q01DX005 (ip), vehicle: acetone): 112 % of control
- T/C (dose: 100.0 mg/kg/injection, schedule: Q01DX005 (ip), vehicle: acetone): 109 % of control
- T/C (dose: 200.0 mg/kg/injection, schedule: Q01DX005 (ip), vehicle: acetone): 109 % of control

Compound: COc1cc2c(cc1OC)C(Cc1ccsc1)NCC2 (stereo not drawn)
- T/C (dose: 50.0 mg/kg/injection, schedule: Q04DX002 (ip), vehicle: Klucel (hydroxypropylcellulose) (HPC)): 102 % of control
- T/C (dose: 100.0 mg/kg/injection, schedule: Q04DX002 (ip), vehicle: Klucel (hydroxypropylcellulose) (HPC)): 100 % of control

Compound: O=C(Nc1ccccc1-c1ccccc1)C(Cl)Cl
- T/C (dose: 50.0 mg/kg/injection, schedule: Q01DX009 (ip), vehicle: Klucel (hydroxypropylcellulose) (HPC)): 101 % of control
- T/C (dose: 100.0 mg/kg/injection, schedule: Q01DX009 (ip), vehicle: Klucel (hydroxypropylcellulose) (HPC)): 104 % of control
- T/C (dose: 200.0 mg/kg/injection, schedule: Q01DX009 (ip), vehicle: Klucel (hydroxypropylcellulose) (HPC)): 87 % of control
- T/C (dose: 400.0 mg/kg/injection, schedule: Q01DX009 (ip), vehicle: Klucel (hydroxypropylcellulose) (HPC)): 100 % of control

Compound: Fc1c(F)c(F)c(SN=S=Nc2ccccc2)c(F)c1F
- T/C [12]: 106 % of control
- T/C [13]: 108 % of control

Compound: CCCCC1(C2c3ccccc3Oc3ccccc32)C(=O)N(c2ccccc2)N(c2ccccc2)C1=O
- T/C [8]: 98 % of control
- T/C [9]: 93 % of control
- T/C [10]: 90 % of control

Compound: CC1=CC[N+](C)(C)C(C(N)=O)C1 (stereo not drawn)
- T/C (dose: 50.0 mg/kg/injection, schedule: Q01DX005 (ip), vehicle: saline): 108 % of control
- T/C (dose: 100.0 mg/kg/injection, schedule: Q01DX005 (ip), vehicle: saline): 105 % of control

Compound: CCCCCCCCCCCCC[N+]1(CC)CCCCC1
- T/C (dose: 0.78 mg/kg/injection, schedule: Q01DX009 (ip), vehicle: saline): 105 % of control
- T/C (dose: 1.56 mg/kg/injection, schedule: Q01DX009 (ip), vehicle: saline): 118 % of control
- T/C (dose: 3.12 mg/kg/injection, schedule: Q01DX009 (ip), vehicle: saline): 110 % of control

Compound: CC1(C)C=C(NC(=O)N2CC2)C(C)(C)N1O
- T/C (dose: 6.25 mg/kg/injection, schedule: Q01DX009 (ip), vehicle: saline with Tween-80): 100 % of control
- T/C [14]: 103 % of control
- T/C [15]: 103 % of control
- T/C [16]: 117 % of control

Compound: O=C1c2ccccc2C(=O)N1CCP(=O)(c1ccccc1)c1ccccc1
- T/C (dose: 12.5 mg/kg/injection, schedule: Q01DX009 (ip), vehicle: other): 98 % of control
- T/C (dose: 25.0 mg/kg/injection, schedule: Q01DX009 (ip), vehicle: other): 106 % of control
- T/C (dose: 50.0 mg/kg/injection, schedule: Q01DX009 (ip), vehicle: other): 98 % of control
- T/C (dose: 100.0 mg/kg/injection, schedule: Q01DX009 (ip), vehicle: other): 91 % of control
- T/C (dose: 200.0 mg/kg/injection, schedule: Q01DX009 (ip), vehicle: other): 91 % of control

Compound: O=C(Nc1ccc(Cl)c(Cl)c1)OCc1ccco1
- T/C (dose: 60.0 mg/kg/injection, schedule: Q01DX005 (ip), vehicle: Klucel (hydroxypropylcellulose) (HPC)): 105 % of control
- T/C (dose: 120.0 mg/kg/injection, schedule: Q01DX005 (ip), vehicle: Klucel (hydroxypropylcellulose) (HPC)): 105 % of control

Compound: CNC(=O)c1cc2ccccc2o/c1=N/NC(N)=O
- T/C (dose: 100.0 mg/kg/injection, schedule: Q01DX001 (ip), vehicle: saline): 103 % of control
- T/C (dose: 200.0 mg/kg/injection, schedule: Q01DX001 (ip), vehicle: saline): 103 % of control
- T/C (dose: 400.0 mg/kg/injection, schedule: Q01DX001 (ip), vehicle: saline): 96 % of control

Compound: COc1ccc(C2NCc3c(sc4c3CCCC4)-n3cccc32)cc1 (stereo not drawn)
- T/C [1]: 87 % of control
- T/C [2]: 87 % of control
- T/C [3]: 87 % of control

Compound: O=[N+]([O-])c1ccccc1-c1ccc2c(O)c(Cl)c(Cl)c(O)c2n1
- T/C [11]: 104 % of control
